Experimental findings from patent publication US7645752B2, “Sulfonyl substituted 1H-indoles as ligands for the 5-hydroxytryptamine receptors” (Wyeth LLC, priority 2006, dated 2010) are described below.

The target of the first test is T1, human cloned 5-HT6 receptors (Homo sapiens, UniProt P50406).
T1 construct: expressed in transfected cells; host or cells: HeLa cells
T1 sequence (P50406 whole entry): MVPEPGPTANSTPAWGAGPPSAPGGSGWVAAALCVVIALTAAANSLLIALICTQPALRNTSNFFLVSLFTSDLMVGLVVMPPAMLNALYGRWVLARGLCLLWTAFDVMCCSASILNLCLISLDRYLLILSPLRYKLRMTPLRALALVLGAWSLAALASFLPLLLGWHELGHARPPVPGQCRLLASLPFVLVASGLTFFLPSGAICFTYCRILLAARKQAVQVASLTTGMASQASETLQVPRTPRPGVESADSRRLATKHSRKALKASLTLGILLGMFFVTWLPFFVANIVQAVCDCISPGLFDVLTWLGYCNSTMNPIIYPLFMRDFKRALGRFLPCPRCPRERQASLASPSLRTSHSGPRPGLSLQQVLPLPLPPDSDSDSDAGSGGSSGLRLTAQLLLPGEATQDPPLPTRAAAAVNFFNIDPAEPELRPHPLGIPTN
Kind of test: 5-HT6 binding affinity, [3H]-LSD displacement on membranes of Hela cells. The note with it: Table 1; 5-HT6 binding, at 1 micromole; read-out: % inhibition at 1 micromole. As to the method: The affinity of test compounds for the 5-HT6 receptor is evaluated in the following manner. Cultured Hela cells expressing human cloned 5-HT6 receptors are harvested and centrifuged at low speed (1,000×g) for 10.0 min to remove the culture media. The harvested cells are suspended in half volume of fresh physiological phosphate buffered saline solution and recentrifuged at the same speed. This operation is repeated. The collected cells are then homogenized in ten volumes of 50 mM Tris.HCl (pH 7.4) and 0.5 mM EDTA. The homogenate is centrifuged at 40,000×g for 30.0 min and the precipitate is collected. The obtained pellet is resuspended in 10 volumes of Tris.HCl buffer and recentrifuged at the same speed. The final pellet is suspended in a small volume of Tris.HCl buffer and the tissue protein content is determined in aliquots of 10-25 microliter volumes. […] The volume of the suspended cell membranes is adjusted to give a tissue protein concentration of 1.0 mg/mL of suspension. The prepared membrane suspension (10 times concentrated) is aliquoted in 1.0 mL volumes and stored at −70° C. until used in subsequent binding experiments.
Binding experiments are performed in a 96 well microtiter plate format in a total volume of 200 microliters. […] The test compounds are added in 20.0 microliter volume.
The bound complex caught on the filter disk is allowed to air dry and the radioactivity is measured in a Packard TopCount® equipped with six photomultiplier detectors, after the addition of 40.0 microliter Microscint®-20 scintillant to each shallow well.
Binding in the presence of varying concentrations of test compound is expressed as a percentage of specific binding in the absence of test compound. The results are plotted as log % bound versus log concentration of the test compound.
On to `CNCCc1cccc2[nH]cc(S(=O)(=O)c3cccc(F)c3)c12` [Example 63, N-methyl-N-{2-[3-(3-fluorophenylsulfonyl)-1H-indol-4-yl]ethyl}amine], for which the inhibition at 1 µM worked out at 61%.

With `CCNCCc1cccc2[nH]cc(S(=O)(=O)c3cccc(F)c3)c12` [Example 64, N-ethyl-N-{2-[3-(3-fluorophenylsulfonyl)-1H-indol-4-yl]ethyl}amine], the inhibition at 1 µM is 57%.

Consider `CCCNCCc1cccc2[nH]cc(S(=O)(=O)c3cccc(F)c3)c12` [Example 65, N-{2-[3-(3-fluorophenylsulfonyl)-1H-indol-4-yl]ethyl}-N-propylamine], for which the inhibition at 1 µM is 67%.

As to `CC(C)NCCc1cccc2[nH]cc(S(=O)(=O)c3cccc(F)c3)c12` [Example 66, N-{2-[3-(3-fluorophenylsulfonyl)-1H-indol-4-yl]ethyl}propan-2-amine], the inhibition at 1 µM worked out at 58%.

As to `O=S(=O)(c1cccc(F)c1)c1c[nH]c2cccc(CCNC3CC3)c12` [Example 67, N-{2-[3-(3-fluorophenylsulfonyl)-1H-indol-4-yl]ethyl}cyclopropanamine], the inhibition at 1 µM was determined as 77%.

As for `CN(CCc1cccc2[nH]cc(S(=O)(=O)c3cccc(F)c3)c12)C1CCCCC1` [Example 72, N-cyclohexyl-N-methyl-N-{2-[3-(3-fluorophenylsulfonyl)-1H-indol-4-yl]ethyl}amine], the inhibition at 1 µM stood at 66%.

The test is the same for the next values; noted with them: Table 1; [3H]-LSD 3.0 nM, Hela cell membranes; read-out: Ki (nM) @ 5-HT6 receptor.
With `CCN(C)CCc1cccc2c(S(=O)(=O)c3ccccc3)c[nH]c12` [Example 24, N-ethyl-N-methyl-N-{2-[3-(phenylsulfonyl)-1H-indol-7-yl]ethyl}amine], the Ki was 11 nM.

Consider `CCN(CC)CCc1cccc2c(S(=O)(=O)c3ccccc3)c[nH]c12` [Example 25, N,N-diethyl-N-{2-[3-(phenylsulfonyl)-1H-indol-7-yl]ethyl}amine], for which the Ki was found to be 21 nM.

Regarding `O=S(=O)(c1ccccc1)c1c[nH]c2c(CCN3CCCC3)cccc12` [Example 26, 3-(phenylsulfonyl)-7-(2-pyrrolidin-1-ylethyl)-1H-indole], the Ki stood at 18 nM.

As to `O=S(=O)(c1ccccc1)c1c[nH]c2c(CCN3CCCCC3)cccc12` [Example 27, 3-(phenylsulfonyl)-7-(2-piperidin-1-ylethyl)-1H-indole], the Ki turned out to be 13 nM.

For `O=S(=O)(c1ccccc1)c1c[nH]c2c(CCN3CCOCC3)cccc12` [Example 28, 7-(2-morpholin-4-ylethyl)-3-(phenylsulfonyl)-1H-indole], the Ki came out at 99 nM.

Turning to `NCCc1cccc2c(S(=O)(=O)c3ccccc3)c[nH]c12` [Example 29, {2-[3-(phenylsulfonyl)-1H-indol-7-yl]ethyl}amine], the Ki worked out at 1.5 nM.

Take `O=S(=O)(c1ccccc1)c1c[nH]c2c(CCN3CCNCC3)cccc12` [Example 30, 3-(phenylsulfonyl)-7-(2-piperazin-1-ylethyl)-1H-indole]: the Ki amounted to 7.5 nM.

Regarding `O=S(=O)(c1cccc(F)c1)c1c[nH]c2cccc(CCNC3CCC3)c12` [Example 68, N-{2-[3-(3-fluorophenylsulfonyl)-1H-indol-4-yl]ethyl}cyclobutanamine], the Ki came out at 23.5 nM.

On to `O=S(=O)(c1cccc(F)c1)c1c[nH]c2cccc(CCNC3CCCC3)c12` [Example 69, N-{2-[3-(3-fluorophenylsulfonyl)-1H-indol-4-yl]ethyl}cyclopentanamine], for which the Ki was found to be 78 nM.

Take `O=S(=O)(c1cccc(F)c1)c1c[nH]c2cccc(CCNC3CCCCC3)c12` [Example 70, N-{2-[3-(3-fluorophenylsulfonyl)-1H-indol-4-yl]ethyl}cyclohexanamine]: the Ki is 180 nM.

In the case of `CCN(C)CCc1cccc2[nH]cc(S(=O)(=O)c3cccc(F)c3)c12` [Example 71, N-ethyl-N-methyl-N-{2-[3-(3-fluorophenylsulfonyl)-1H-indol-4-yl]ethyl}amine], the Ki worked out at 116 nM.

Staying with this test, now noted: read-out: % inhibition at 1 micromole.
Turning to `CN(C)CCc1cccc2[nH]cc(S(=O)(=O)c3cccc(F)c3)c12` [Example 62, N,N-dimethyl-N-{2-[3-(3-fluorophenylsulfonyl)-1H-indol-4-yl]ethyl}amine], the inhibition at 1 µM stood at 72%.

For orientation: inhibition means the share of the control response that was lost under treatment. A word on the Ki: it is the dissociation constant of the complex between target and ligand, obtained from inhibition or displacement.
